Source: ChEMBL document CHEMBL5465560, “Selectivity Literature for EUbOPEN Chemogenomic Library” (2024)

How the values were obtained:
[1] = target: T1, Ephrin type-A receptor 3 (Homo sapiens) (UniProt P29320); test: Selectivity interaction (ProQinase) EUB0000171b EPHA3
T1 sequence (whole entry): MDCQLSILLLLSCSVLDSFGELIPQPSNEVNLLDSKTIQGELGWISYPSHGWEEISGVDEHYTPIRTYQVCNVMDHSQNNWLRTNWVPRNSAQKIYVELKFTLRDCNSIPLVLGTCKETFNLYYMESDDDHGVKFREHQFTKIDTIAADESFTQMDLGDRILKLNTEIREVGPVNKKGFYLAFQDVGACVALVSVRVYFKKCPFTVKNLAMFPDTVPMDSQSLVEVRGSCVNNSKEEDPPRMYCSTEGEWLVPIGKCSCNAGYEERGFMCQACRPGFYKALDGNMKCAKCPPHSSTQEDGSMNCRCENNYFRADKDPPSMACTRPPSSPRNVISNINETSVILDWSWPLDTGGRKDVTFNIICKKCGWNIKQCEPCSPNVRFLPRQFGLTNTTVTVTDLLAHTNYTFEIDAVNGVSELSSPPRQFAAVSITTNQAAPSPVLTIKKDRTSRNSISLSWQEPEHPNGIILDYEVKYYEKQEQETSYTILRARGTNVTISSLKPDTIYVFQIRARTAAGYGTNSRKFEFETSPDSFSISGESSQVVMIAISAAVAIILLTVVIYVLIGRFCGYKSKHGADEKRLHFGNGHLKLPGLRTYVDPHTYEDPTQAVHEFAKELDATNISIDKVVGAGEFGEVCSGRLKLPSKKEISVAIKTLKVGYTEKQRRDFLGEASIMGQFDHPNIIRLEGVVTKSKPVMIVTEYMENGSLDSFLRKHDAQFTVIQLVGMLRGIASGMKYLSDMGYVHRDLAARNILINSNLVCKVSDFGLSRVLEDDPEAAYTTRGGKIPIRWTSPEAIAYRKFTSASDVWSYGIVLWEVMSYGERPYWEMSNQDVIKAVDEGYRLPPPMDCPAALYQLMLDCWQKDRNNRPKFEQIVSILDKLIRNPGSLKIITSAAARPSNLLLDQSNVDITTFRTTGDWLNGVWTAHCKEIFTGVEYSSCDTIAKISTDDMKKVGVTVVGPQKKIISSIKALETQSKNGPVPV

[2] = target: T2, Serine/threonine-protein kinase STK11 (Homo sapiens) (UniProt Q15831); test: Selectivity interaction (KinomeScan (DiscoverX)) EUB0001079a STK11; settings: at 1 µM
T2 sequence (whole entry): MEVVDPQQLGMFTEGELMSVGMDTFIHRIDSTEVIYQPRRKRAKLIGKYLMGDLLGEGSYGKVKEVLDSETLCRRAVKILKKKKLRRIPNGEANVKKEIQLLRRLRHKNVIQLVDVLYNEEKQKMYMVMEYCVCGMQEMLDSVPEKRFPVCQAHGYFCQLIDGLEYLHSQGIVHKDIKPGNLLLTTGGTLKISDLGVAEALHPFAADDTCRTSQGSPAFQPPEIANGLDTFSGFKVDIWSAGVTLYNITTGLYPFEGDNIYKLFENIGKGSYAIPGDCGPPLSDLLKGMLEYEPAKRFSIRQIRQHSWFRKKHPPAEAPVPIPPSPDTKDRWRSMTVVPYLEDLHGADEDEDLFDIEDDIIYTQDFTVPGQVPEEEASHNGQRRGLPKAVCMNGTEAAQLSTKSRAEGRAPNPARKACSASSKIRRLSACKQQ

[3] = target: T3, Mitogen-activated protein kinase kinase kinase 6 (Homo sapiens) (UniProt O95382); test: Selectivity interaction (KinomeScan (DiscoverX)) EUB0000666a MAP3K6; settings: at 10 µM
T3 sequence (whole entry): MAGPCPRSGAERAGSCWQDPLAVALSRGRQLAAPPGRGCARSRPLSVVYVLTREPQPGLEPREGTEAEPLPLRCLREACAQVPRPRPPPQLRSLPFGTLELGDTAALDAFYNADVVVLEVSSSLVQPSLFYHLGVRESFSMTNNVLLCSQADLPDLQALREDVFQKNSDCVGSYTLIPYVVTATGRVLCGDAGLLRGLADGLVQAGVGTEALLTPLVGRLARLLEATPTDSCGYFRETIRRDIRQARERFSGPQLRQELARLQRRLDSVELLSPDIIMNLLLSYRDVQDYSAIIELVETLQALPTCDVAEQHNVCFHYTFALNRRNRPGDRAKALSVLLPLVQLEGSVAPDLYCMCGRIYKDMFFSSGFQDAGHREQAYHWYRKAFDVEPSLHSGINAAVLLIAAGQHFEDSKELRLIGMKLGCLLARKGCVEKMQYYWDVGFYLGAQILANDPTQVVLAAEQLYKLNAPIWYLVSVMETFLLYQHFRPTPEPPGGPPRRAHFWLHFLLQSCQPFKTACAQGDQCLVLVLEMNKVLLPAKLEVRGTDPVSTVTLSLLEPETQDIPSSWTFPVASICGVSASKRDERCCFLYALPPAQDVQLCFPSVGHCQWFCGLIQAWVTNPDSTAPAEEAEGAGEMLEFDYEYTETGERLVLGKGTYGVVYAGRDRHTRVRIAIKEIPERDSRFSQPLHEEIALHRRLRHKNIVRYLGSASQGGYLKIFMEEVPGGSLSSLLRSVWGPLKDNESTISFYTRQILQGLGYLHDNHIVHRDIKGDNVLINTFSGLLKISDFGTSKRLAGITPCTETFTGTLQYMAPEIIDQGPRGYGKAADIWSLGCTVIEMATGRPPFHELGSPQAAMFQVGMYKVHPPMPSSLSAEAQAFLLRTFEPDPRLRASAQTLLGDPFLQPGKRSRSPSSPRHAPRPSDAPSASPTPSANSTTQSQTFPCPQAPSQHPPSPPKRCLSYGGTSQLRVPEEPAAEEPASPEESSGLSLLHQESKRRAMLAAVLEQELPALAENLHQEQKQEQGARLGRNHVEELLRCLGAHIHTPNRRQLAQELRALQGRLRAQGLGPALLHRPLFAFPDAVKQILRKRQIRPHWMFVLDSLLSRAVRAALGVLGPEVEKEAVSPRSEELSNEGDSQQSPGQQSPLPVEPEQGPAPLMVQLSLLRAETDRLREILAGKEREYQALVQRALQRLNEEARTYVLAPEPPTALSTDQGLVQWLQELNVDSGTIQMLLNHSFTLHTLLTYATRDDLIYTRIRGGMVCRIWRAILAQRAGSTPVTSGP

[4] = target: BDNF/NT-3 growth factors receptor (Homo sapiens) (UniProt Q16620); test: Selectivity interaction (Kinase panel (Z-LYTE Assay)) EUB0001632a NTRK2; settings: at 10 µM
[5] = target: Transcription initiation factor TFIID subunit 1-like (Homo sapiens) (UniProt Q8IZX4); test: Selectivity interaction (Bromodomain panel (DSF asssay)) EUB0000270b TAF1L
[6] = target: Calcium/calmodulin-dependent protein kinase type II subunit gamma (Homo sapiens) (UniProt Q13555); test: Selectivity interaction (Ambit KINOMEscan and KiNATiv profiling in Jurkat cells) EUB0000090b CAMK2G; assay type: cell-based; settings: at 1 µM
Sequence of Calcium/calmodulin-dependent protein kinase type II subunit gamma (Homo sapiens) (Q13555 whole entry): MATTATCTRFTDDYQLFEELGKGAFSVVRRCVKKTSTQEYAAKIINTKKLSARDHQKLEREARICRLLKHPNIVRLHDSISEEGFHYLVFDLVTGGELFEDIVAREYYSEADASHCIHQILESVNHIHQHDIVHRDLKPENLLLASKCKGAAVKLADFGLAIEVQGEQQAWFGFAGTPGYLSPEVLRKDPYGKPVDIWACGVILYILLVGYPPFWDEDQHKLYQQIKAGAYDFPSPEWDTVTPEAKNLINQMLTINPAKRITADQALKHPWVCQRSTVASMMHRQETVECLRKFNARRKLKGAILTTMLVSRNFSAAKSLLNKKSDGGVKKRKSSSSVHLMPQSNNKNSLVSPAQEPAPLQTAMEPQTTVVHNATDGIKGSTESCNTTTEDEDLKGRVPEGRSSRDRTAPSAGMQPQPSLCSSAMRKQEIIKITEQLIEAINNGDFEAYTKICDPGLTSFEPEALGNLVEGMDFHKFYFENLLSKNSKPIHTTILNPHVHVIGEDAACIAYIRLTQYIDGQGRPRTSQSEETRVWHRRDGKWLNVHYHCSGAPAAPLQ

Sequence of BDNF/NT-3 growth factors receptor (Homo sapiens) (Q16620 32-822 limits assumed): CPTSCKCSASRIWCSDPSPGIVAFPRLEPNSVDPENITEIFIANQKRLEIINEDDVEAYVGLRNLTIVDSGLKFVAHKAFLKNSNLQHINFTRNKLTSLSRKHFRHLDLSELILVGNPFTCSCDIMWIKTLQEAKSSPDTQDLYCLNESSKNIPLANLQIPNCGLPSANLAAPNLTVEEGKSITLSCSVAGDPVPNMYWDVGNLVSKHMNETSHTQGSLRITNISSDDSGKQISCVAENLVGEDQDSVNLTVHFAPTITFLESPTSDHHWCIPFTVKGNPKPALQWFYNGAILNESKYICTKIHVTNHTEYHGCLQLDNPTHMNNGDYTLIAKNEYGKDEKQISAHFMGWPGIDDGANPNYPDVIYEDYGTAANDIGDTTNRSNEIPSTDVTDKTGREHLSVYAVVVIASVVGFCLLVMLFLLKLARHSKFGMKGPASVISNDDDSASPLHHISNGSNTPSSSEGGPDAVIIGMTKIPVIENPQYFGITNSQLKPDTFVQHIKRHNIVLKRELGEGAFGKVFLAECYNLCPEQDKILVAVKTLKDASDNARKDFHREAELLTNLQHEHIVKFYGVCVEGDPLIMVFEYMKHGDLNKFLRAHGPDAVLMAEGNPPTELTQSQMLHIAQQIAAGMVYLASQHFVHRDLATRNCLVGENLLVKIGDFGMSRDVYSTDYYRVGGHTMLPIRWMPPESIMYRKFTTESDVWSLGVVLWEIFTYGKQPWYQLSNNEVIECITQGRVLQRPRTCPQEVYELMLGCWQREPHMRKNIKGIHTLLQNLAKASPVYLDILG
Sequence of Transcription initiation factor TFIID subunit 1-like (Homo sapiens) (Q8IZX4 whole entry): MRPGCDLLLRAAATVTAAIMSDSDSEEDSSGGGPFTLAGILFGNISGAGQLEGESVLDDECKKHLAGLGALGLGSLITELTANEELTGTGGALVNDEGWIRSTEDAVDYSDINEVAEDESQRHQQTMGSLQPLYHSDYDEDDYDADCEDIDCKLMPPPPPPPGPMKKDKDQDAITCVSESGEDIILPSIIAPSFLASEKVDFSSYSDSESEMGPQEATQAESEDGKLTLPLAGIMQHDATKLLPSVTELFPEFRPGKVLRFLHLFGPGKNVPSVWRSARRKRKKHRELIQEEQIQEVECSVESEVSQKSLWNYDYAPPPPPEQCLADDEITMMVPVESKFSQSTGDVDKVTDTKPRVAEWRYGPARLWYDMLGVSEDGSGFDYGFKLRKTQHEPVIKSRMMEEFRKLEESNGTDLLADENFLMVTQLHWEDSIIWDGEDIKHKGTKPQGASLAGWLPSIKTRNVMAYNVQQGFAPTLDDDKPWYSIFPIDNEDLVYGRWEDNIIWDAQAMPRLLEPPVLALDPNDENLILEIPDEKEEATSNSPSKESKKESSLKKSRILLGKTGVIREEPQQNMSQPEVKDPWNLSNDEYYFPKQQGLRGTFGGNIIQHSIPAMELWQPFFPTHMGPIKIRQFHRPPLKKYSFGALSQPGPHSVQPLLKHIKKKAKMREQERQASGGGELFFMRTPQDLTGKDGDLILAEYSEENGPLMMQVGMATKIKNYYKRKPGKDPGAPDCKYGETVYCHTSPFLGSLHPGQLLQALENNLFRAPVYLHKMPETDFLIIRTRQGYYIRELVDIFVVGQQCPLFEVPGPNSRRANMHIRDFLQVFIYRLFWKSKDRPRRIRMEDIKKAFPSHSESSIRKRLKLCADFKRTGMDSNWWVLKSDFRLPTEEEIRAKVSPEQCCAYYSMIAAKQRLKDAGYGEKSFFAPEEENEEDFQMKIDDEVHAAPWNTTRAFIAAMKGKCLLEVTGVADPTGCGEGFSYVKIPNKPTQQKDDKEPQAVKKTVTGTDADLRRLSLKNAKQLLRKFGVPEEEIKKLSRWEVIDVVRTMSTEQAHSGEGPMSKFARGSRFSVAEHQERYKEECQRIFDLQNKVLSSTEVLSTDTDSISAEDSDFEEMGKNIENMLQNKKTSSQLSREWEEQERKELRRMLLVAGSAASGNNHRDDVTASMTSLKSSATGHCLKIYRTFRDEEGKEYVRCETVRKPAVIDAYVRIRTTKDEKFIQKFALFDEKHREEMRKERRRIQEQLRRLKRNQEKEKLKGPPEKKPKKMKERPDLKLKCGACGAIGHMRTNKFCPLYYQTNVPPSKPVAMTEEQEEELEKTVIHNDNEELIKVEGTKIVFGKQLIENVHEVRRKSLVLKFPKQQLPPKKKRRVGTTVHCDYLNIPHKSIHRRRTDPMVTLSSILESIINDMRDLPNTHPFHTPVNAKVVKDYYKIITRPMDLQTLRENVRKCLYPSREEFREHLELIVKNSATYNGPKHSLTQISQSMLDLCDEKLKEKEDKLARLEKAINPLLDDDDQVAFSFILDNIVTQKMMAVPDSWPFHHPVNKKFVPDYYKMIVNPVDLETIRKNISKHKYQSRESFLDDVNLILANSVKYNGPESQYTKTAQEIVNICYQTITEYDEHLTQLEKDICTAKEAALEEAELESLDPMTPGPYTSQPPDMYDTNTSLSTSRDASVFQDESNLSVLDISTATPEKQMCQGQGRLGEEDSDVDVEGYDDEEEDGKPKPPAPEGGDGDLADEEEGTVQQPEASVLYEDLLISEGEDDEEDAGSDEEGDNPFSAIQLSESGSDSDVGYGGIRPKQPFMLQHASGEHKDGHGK

For C=CC(=O)Nc1cccc(C(=O)Nc2ccc(Nc3cc(-c4[nH]c(SC)nc4C)ccn3)cc2)c1, the % of control ([1]; at 1 µM) was 98% and the % of control ([1]; at 5 µM) was 89%.

Work on Nc1cnc(N2CCc3cc(S(=O)(=O)Nc4c(F)cc(Cl)cc4F)cc(N4CCCC4=O)c32)nc1 [TP-020n] yielded a % of control [2] of 100%.

For O=C(NOC[C@H](O)CO)c1ccc(F)c(F)c1Nc1ccc(I)cc1F, the % of control [3] was 95%.

Cn1cc(-n2cnc3c(NCc4nc5cc(Cl)c(Cl)cc5[nH]4)nc(N4CCOCC4)nc32)cn1 gave a % of control [4] of 4.86%.

Cc1cc(CN)cc(C)c1-c1ncn(C)c1-c1cncn1C gave a dTM [5] of -1.56 K.

Work on CN(C)C/C=C/C(=O)Nc1ccc(C(=O)N2CCCC(Nc3ncc(Cl)c(-c4c[nH]c5ccccc45)n3)C2)cc1 (configuration not stated) yielded a % of control [6] of 93%.
